# Source: patent US4159373A, “7-Acyl-3-(sulfonic acid and sulfamoyl substituted tetrazolyl thiomethyl) cephalosporins” (SmithKline Corporation, priority 1978, dated 1979)
# Read-outs that look alike come from different tables or passages of the source.
# Assays:
# Proteus morgani 179 = assay: MIC in vitro; format: cell-based
# Description: (§1) The compounds of Formula I have exceptional antibacterial activity against both Gram-positive and Gram-negative organisms. Minimum inhibitory concentrations (MIC's) ranged from 0.2 to <200 μg./ml. in in vitro testing.
# E. coli SK 12140 = assay: MIC in vitro; format: cell-based
# Description: as §1
# S. aureus HH 127 = assay: MIC in vitro; format: cell-based; details: Staphylococcus aureus
# Description: as §1
# E. coli HH 33779 = assay: MIC in vitro; format: cell-based; details: Escherichia coli, HH33779, Table 1; E. coli HH 33779; read-out: MIC in vitro
# Description: as §1
# Strep. Faecalis HH 34358 = assay: MIC in vitro; format: cell-based; details: Enterococcus faecalis
# Description: as §1
# S. aureus SK 23390 = assay: MIC in vitro; format: cell-based; details: Staphylococcus aureus, SK23390, Table 1; S. aureus SK 23390; read-out: MIC in vitro
# Description: as §1
# Salmonella ATCC 12176 = assay: MIC in vitro; format: cell-based; details: Salmonella, ATCC12176, Table 1, read-out: MIC in vitro
# Description: as §1
# Staph. aureus 671 = assay: MIC in vitro; format: cell-based
# Psuedo. sp. HH 63 = assay: MIC in vitro; format: cell-based, Pseudo. aeruginosa
# Description: as §1
# Kleb. pneumo. SK 1200 = assay: MIC in vitro; format: cell-based, Kleb. pneumoniae; details: Klebsiella pneumoniae
# Description: as §1
# Kleb. pneumo. SK 4200 = assay: MIC in vitro; format: cell-based, Kleb. pneumoniae; details: Klebsiella pneumoniae
# Description: as §1
# Enterobacter cloacae 921 = assay: MIC in vitro; format: cell-based
# [1] = tested on: Entero. aerog. ATCC 13048; assay: MIC in vitro; format: cell-based, Enterobacter aerogenes; details: Klebsiella aerogenes
# Description: as §1
# Proteus mirabilis 444 = assay: MIC in vitro; format: cell-based
# E. coli 804 = assay: MIC in vitro; format: cell-based
# Staph. aureus 674 = assay: MIC in vitro; format: cell-based
# E. coli 12140 = assay: In vivo mouse protection, E. coli 12140; details: Escherichia coli, 12140, sc, s.c.
# Serra. marc ATCC 13880 = assay: MIC in vitro; format: cell-based, Serratia marcescens; details: Serratia marcescens
# Description: as §1
# Kleb. pneumoniae 982 = assay: MIC in vitro; format: cell-based
# Kleb. pneumo. 4200 = assay: In vivo mouse protection, Kleb. pneumo. 4200; details: sc
# Pseudo. aeruginosa 647 = assay: MIC in vitro; format: cell-based
# [2] = Example 54 table, read-out: MIC
structure (smiles),measurement,setting,value
"Cc1nnc(SCC2=C(C(=O)O)N3C(=O)[C@@H](NC(=O)Cn4cnnn4)[C@H]3SC2)s1 [XIII, Cefazolin, reference compound]",MIC,Proteus morgani 179; [2],> 100 µg/mL
same,MIC,"Proteus morgani 179; Example 55 table, read-out: MIC",> 100 µg/mL
same,MIC,"Proteus morgani 179; Table 1, read-out: MIC in vitro",200 µg/mL
same,MIC,"E. coli SK 12140; Escherichia coli, SK12140, Example 54 table, E. coli SK&F 12140, read-out: MIC",0.8 µg/mL
same,MIC,"E. coli SK 12140; Escherichia coli, SK12140, Table 1, E. coli SK 12140, read-out: MIC in vitro",0.8 µg/mL
same,MIC,"E. coli SK 12140; Example 55 table, E. coli SK&F 12140",0.8 µg/mL
same,MIC,"S. aureus HH 127; HH127, Example 54 table, Staph. aureus HH 127",0.8 µg/mL
same,MIC,"S. aureus HH 127; HH127, Table 1, S. aureus HH 127, read-out: MIC in vitro",0.4 µg/mL
same,MIC,"S. aureus HH 127; Example 55 table, Staph. aureus HH127, read-out: MIC",0.4 µg/mL
same,MIC,E. coli HH 33779,0.8 µg/mL
same,MIC,"Strep. Faecalis HH 34358; Example 54 table, Strep. faecalis HH 34358, read-out: MIC",25 µg/mL
same,MIC,"Strep. Faecalis HH 34358; Example 55 table, Strep. faecalis HH 34358, read-out: MIC",12.5 µg/mL
same,MIC,"Strep. Faecalis HH 34358; Table 1, Strep. Faecalis HH 34358, read-out: MIC in vitro",6.3 µg/mL
same,MIC,S. aureus SK 23390,0.2 µg/mL
same,MIC,Salmonella ATCC 12176,0.8 µg/mL
same,MIC,"Staph. aureus 671; Staphylococcus aureus, 671, Example 55 table",12.5 µg/mL
same,MIC,"Staph. aureus 671; Staphylococcus aureus, Example 54 table",0.8 µg/mL
same,MIC,"Psuedo. sp. HH 63; Example 55 table, Pseudo. aeruginosa HH63",> 100 µg/mL
same,MIC,"Psuedo. sp. HH 63; Pseudomonas aeruginosa, Example 54 table, Pseudo. aeruginosa HH 63, read-out: MIC",> 100 µg/mL
same,MIC,"Psuedo. sp. HH 63; Pseudomonas aeruginosa, Table 1, Psuedo. sp. HH 63, read-out: MIC in vitro",> 200 µg/mL
same,MIC,"Kleb. pneumo. SK 1200; Example 54 table, Kleb. pneumoniae SK&F 1200, read-out: MIC",0.4 µg/mL
same,MIC,"Kleb. pneumo. SK 1200; Example 55 table, Kleb. pneumoniae SK&F 1200, read-out: MIC",0.8 µg/mL
same,MIC,"Kleb. pneumo. SK 1200; Table 1, Kleb. pneumo. SK 1200, read-out: MIC in vitro",0.8 µg/mL
same,MIC,"Kleb. pneumo. SK 4200; Example 54 table, Kleb. pneumoniae SK&F 4200, read-out: MIC",3.1 µg/mL
same,MIC,"Kleb. pneumo. SK 4200; Example 55 table, Kleb. pneumoniae SK&F 4200, read-out: MIC",1.6 µg/mL
same,MIC,"Kleb. pneumo. SK 4200; Table 1, Kleb. pneumo. SK 4200, read-out: MIC in vitro",0.8 µg/mL
same,MIC,"Enterobacter cloacae 921; Enterobacter cloacae, 921, Example 54 table",25 µg/mL
same,MIC,"Enterobacter cloacae 921; Enterobacter cloacae, 921, Example 55 table",6.3 µg/mL
same,MIC,"[1]; ATCC13048, Example 54 table, Enterobacter aerogenes 13048, read-out: MIC",3.1 µg/mL
same,MIC,"[1]; ATCC13048, Example 55 table, Enterobacter aerogenes 13048, read-out: MIC",3.1 µg/mL
same,MIC,"[1]; ATCC13048, Table 1, Entero. aerog. ATCC 13048, read-out: MIC in vitro",1.6 µg/mL
same,MIC,Proteus mirabilis 444; [2],3.1 µg/mL
same,MIC,Proteus mirabilis 444; Example 55 table,3.1 µg/mL
same,MIC,"E. coli 804; Escherichia coli, Example 54 table, read-out: MIC",100 µg/mL
same,MIC,E. coli 804; Example 55 table,100 µg/mL
same,MIC,"Staph. aureus 674; Staphylococcus aureus, 674, Example 54 table",0.4 µg/mL
same,MIC,"Staph. aureus 674; Staphylococcus aureus, 674, Example 55 table",0.2 µg/mL
same,ED50,"E. coli 12140; Example 54, E. coli SKF 12140, read-out: ED50",4.4 mg/kg
same,ED50,"E. coli 12140; Example 55, E. coli SKF 12140, read-out: ED50",3.12 mg/kg
same,ED50,"E. coli 12140; Table 2, E. coli 12140, read-out: ED50 in vivo",4 mg/kg
same,MIC,"Serra. marc ATCC 13880; ATCC13880, Example 54 table, Serratia marcescens ATCC 13880, read-out: MIC",> 100 µg/mL
same,MIC,"Serra. marc ATCC 13880; ATCC13880, Example 55 table, Serratia marcescens ATCC 13880, read-out: MIC",> 100 µg/mL
same,MIC,"Serra. marc ATCC 13880; ATCC13880, Table 1, Serra. marc ATCC 13880, read-out: MIC in vitro",200 µg/mL
same,MIC,Kleb. pneumoniae 982; Example 55 table,> 100 µg/mL
same,MIC,"Kleb. pneumoniae 982; Klebsiella pneumoniae, Example 54 table, read-out: MIC",> 100 µg/mL
same,ED50,"Kleb. pneumo. 4200; Example 54, s.c., K. pneumo. SKF 4200, read-out: ED50",0.7 mg/kg
same,ED50,"Kleb. pneumo. 4200; Example 55, s.c., K. pneumo. SK&F 4200, read-out: ED50",8.7 mg/kg
same,ED50,"Kleb. pneumo. 4200; Table 2, Kleb. pneumo. 4200, s.c., read-out: ED50 in vivo",6.25 mg/kg
same,MIC,Pseudo. aeruginosa 647; Example 55 table,> 100 µg/mL
same,MIC,"Pseudo. aeruginosa 647; Pseudomonas aeruginosa, Example 54 table, read-out: MIC",> 100 µg/mL
